Experimental data reported in ChEMBL document CHEMBL1201862, “PubChem BioAssay data set” (2004).
Where a name gives a salt, the structure may show the parent alone.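 Cells were grown in 96-well plates and exposed to each compound for 48 hours at five concentrations; endpoints were interpolated linearly between bracketing concentrations, or set to the highest concentration if not reached. At the GI50, growth is halved.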 Activity calls are given as the source filed them. No stated cut-off is given here; in the data, active = GI50 up to about 1.1 µM and inactive = higher.

Tests used:
Test in all cases: NCI anticancer screen, dose series, 48 h
CAKI-1 = test system: CAKI-1
EKVX = test system: EKVX
CCRF-CEM = test system: CCRF-CEM
UACC-257 = test system: UACC-257
HOP-62 = test system: HOP-62
LOX IMVI = test system: LOX IMVI
RPMI-8226 = test system: RPMI-8226
HCC 2998 = test system: HCC 2998
NCI-H522 = test system: NCI-H522
786-0 = test system: 786-0
COLO 205 = test system: COLO 205
OVCAR-4 = test system: OVCAR-4
SNB-19 = test system: SNB-19
SF-268 = test system: SF-268
SNB-75 = test system: SNB-75
A498 = test system: A498
SN12C = test system: SN12C
BT-549 = test system: BT-549
MCF7 = test system: MCF7
PC-3 = test system: PC-3

Measured: GI50

N#CCCN(CCC#N)C(=O)c1cccc(C(=O)N(CCC#N)CCC#N)c1
inactive: CAKI-1 > 100 µM | EKVX > 46.2 µM | CCRF-CEM > 100 µM | UACC-257 > 100 µM | HOP-62 > 100 µM | LOX IMVI 16.4 µM | RPMI-8226 > 50.4 µM | HCC 2998 > 85.1 µM | NCI-H522 > 100 µM | 786-0 > 100 µM | COLO 205 > 70.5 µM | OVCAR-4 > 100 µM | SNB-19 > 61 µM | SF-268 > 100 µM | SNB-75 > 44.6 µM | A498 > 100 µM | SN12C > 43.7 µM

NC(=S)Nc1nnc(-c2ccc(-c3nnc(NC(N)=S)o3)cc2)o1
inactive: CAKI-1 > 100 µM | EKVX > 100 µM | CCRF-CEM > 100 µM | UACC-257 > 100 µM | HOP-62 > 100 µM | LOX IMVI > 100 µM | RPMI-8226 > 100 µM | HCC 2998 > 100 µM | NCI-H522 > 100 µM | 786-0 > 100 µM | COLO 205 > 100 µM | OVCAR-4 > 100 µM | SNB-19 > 100 µM | SF-268 > 100 µM | SNB-75 > 100 µM | A498 > 100 µM | SN12C > 100 µM

CCCCCCC(C)CC(CCCCCC)NCCOC(=O)c1ccc([N+](=O)[O-])cc1 (centres undefined)
inactive: EKVX 13.7 µM | CCRF-CEM 2.69 µM | UACC-257 9.46 µM | HOP-62 16.3 µM | LOX IMVI 7.4 µM | BT-549 16.4 µM | MCF7 14.1 µM | HCC 2998 3.72 µM | NCI-H522 13.8 µM | 786-0 14.9 µM | COLO 205 2.17 µM | OVCAR-4 11.7 µM | SNB-19 15.9 µM | SF-268 16.3 µM | SNB-75 14.4 µM | SN12C 12.4 µM

N#Cc1c(N2CCCC2)ncn(-c2ccccc2)c1=O
inactive: CAKI-1 > 100 µM | EKVX > 100 µM | CCRF-CEM > 100 µM | UACC-257 > 100 µM | HOP-62 > 100 µM | LOX IMVI > 100 µM | RPMI-8226 > 100 µM | PC-3 > 100 µM | HCC 2998 > 100 µM | NCI-H522 > 100 µM | 786-0 > 100 µM | COLO 205 > 100 µM | OVCAR-4 > 100 µM | SNB-19 > 100 µM | SF-268 > 100 µM | SNB-75 > 100 µM | A498 > 100 µM | SN12C > 100 µM

CC1(C)C=C(/C=N/Nc2ccccc2)C(C#N)=C(O)C1(C#N)C#N
inactive: CAKI-1 > 100 µM | EKVX > 100 µM | CCRF-CEM 68.4 µM | UACC-257 > 100 µM | HOP-62 > 100 µM | LOX IMVI > 100 µM | MCF7 > 100 µM | RPMI-8226 52.5 µM | PC-3 36.7 µM | HCC 2998 > 100 µM | NCI-H522 > 100 µM | 786-0 > 100 µM | COLO 205 74.1 µM | OVCAR-4 > 100 µM | SNB-19 > 100 µM | SF-268 > 100 µM | SNB-75 > 100 µM | A498 48.6 µM | SN12C > 100 µM

COC(=O)CCC1(NS(=O)(=O)c2ccc(C)cc2)CCC(C(C)(C)C)CC1 (centres undefined)
inactive: CAKI-1 13.6 µM | EKVX > 10 µM | CCRF-CEM 9.89 µM | UACC-257 6.95 µM | HOP-62 17.3 µM | LOX IMVI 17.3 µM | RPMI-8226 4.08 µM | HCC 2998 14.6 µM | NCI-H522 5.16 µM | 786-0 14.4 µM | COLO 205 13.4 µM | OVCAR-4 11.2 µM | SNB-19 12.2 µM | SF-268 > 10 µM | SNB-75 14.3 µM | A498 13.6 µM | SN12C 13.7 µM

c1csc(-c2ccsc2-c2cccs2)c1
inactive: CAKI-1 > 100 µM | EKVX > 100 µM | CCRF-CEM 76.9 µM | UACC-257 > 100 µM | HOP-62 > 100 µM | LOX IMVI 98.6 µM | MCF7 34.6 µM | RPMI-8226 16.8 µM | HCC 2998 53.7 µM | NCI-H522 31.5 µM | 786-0 > 100 µM | COLO 205 52.2 µM | OVCAR-4 33 µM | SF-268 > 100 µM | SNB-75 54.6 µM | A498 36 µM | SN12C > 100 µM

CN(C)CCOc1ccc(/C(=C(/CCCl)c2ccccc2)c2ccccc2)cc1 [TOREMIFENE CITRATE]
inactive: CAKI-1 15 µM | EKVX 15.9 µM | CCRF-CEM 6.1 µM | UACC-257 20.3 µM | HOP-62 15.5 µM | LOX IMVI 18.1 µM | MCF7 1.58 µM | RPMI-8226 4.45 µM | PC-3 16.4 µM | HCC 2998 5.16 µM | NCI-H522 16.5 µM | 786-0 17.8 µM | COLO 205 19.4 µM | OVCAR-4 17.3 µM | SNB-19 15 µM | SF-268 17.4 µM | SNB-75 11.9 µM | SN12C 16.7 µM
